From patent US8791266B2, “Thyroid hormone β receptor agonist” (Mitsubishi Tanabe Pharma Corporation, priority 2009, dated 2014)

Experiments:
[1] = target: T1, Human Thyroid Hormone Receptor β1 (TRβ1) (Homo sapiens, UniProt P10828); assay: Transcription activation test of human thyroid hormone receptor β1 (luciferase reporter in 293T cells); format: cell-based; conditions: EC50 of transcription activation on TRβ1, 293T cells, luciferase activity after 24 hr; read-out: TRβ
T1 construct: expressed in transfected cells; host or cells: 293T cells
T1 sequence (P10828 1-461): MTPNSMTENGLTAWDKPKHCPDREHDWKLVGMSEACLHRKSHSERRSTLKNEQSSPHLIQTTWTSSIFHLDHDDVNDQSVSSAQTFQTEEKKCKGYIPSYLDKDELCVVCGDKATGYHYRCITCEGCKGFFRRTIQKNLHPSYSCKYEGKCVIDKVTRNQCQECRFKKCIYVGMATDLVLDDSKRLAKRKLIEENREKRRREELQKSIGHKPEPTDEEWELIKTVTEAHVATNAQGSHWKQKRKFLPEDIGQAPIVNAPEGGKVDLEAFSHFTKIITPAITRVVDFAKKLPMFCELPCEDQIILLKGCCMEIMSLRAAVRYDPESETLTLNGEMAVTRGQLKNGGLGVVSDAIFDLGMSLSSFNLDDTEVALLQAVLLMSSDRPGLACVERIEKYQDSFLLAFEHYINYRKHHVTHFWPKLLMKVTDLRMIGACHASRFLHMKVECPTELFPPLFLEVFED
Text: (§1) Transcription Activation Test of Human Thyroid Hormone Receptors α1 (TRα1) and β1 (TRβ1)
(§2) pcDNA3.1 vector (manufactured by Invitrogen) that expresses TRα1 or β1 cloned from human liver-derived cells, and firefly luciferase expression vector pDR4-LuC (manufactured by Stratagene) having a thyroid hormone response sequence to be a reporter were transfected into 293T cells cultured in Dulbecco's modified Eagle medium (DMEM) containing 10% of activated carbon/dextran-treated fetal bovine serum (FBS) by using Lipofectamine2000 (manufactured by Invitrogen). After 16 hr, the cells were plated again in a 96 well plate, and the medium was exchanged with DMEM containing 0.1% activated carbon/dextran-treated FBS. After 3 more hr, a compound diluted with dimethyl sulfoxide solution was added, and the luciferase activity after 24 hr was measured.
(§3) As a positive control, 3,3′,5-triiodo-L-thyronine (T3), which is a biological ligand, was used. The transcription activation action of the compound on TRα1 and TRβ1 was shown by each EC50 value and the maximum luciferase activity value relative to the maximum luciferase activity value of T3 as 100.

[2] = target: T2, Human Thyroid Hormone Receptor α1 (TRα1) (Homo sapiens, UniProt P10827); assay: Transcription activation test of human thyroid hormone receptor α1 (luciferase reporter in 293T cells); format: cell-based; conditions: ratio TRα/TRβ of the transcription activation EC50 values
T2 construct: expressed in transfected cells; host or cells: 293T cells
T2 sequence (P10827 1-410 isoform P10827-2): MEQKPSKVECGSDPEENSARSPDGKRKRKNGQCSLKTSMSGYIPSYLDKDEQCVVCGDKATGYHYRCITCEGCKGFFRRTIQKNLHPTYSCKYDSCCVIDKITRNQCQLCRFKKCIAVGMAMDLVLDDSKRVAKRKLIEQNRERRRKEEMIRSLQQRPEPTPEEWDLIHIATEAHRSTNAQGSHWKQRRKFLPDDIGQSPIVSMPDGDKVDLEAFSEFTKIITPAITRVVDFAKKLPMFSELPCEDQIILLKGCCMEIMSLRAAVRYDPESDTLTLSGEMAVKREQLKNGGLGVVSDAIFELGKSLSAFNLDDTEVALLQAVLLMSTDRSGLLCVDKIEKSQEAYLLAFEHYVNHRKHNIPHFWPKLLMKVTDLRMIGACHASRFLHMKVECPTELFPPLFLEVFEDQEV
Text: as §1, §2, §3

| Structure (SMILES) | EC50 [1] [nM] | selectivity (TRα/TRβ) [2] |
| --- | --- | --- |
| Cc1cc(OCc2noc(=O)[nH]2)c2c(c1Cc1ccc(O)c(C3CCCCC3)n1)CCO2 [Example 117, 3-[({4-[(6-cyclohexyl-5-hydroxypyridin-2-yl)methyl]-5-methyl-2,3-dihydro-1-benzofuran-7-yl}oxy)methyl]-1,2,4-oxadiazol-5(4H)-one] | 2 | B (2<(TRα/TRβ)<5) |
| Cc1cc(OCc2noc(=O)[nH]2)c(F)c(C)c1Cc1ccc(O)c(N2CCCCC2)n1 [Example 118, 3-({2-fluoro-4-[(5-hydroxy-6-piperidin-1-ylpyridin-2-yl)methyl]-3,5-dimethylphenoxy}methyl)-1,2,4-oxadiazol-5(4H)-one] | 20 | B (2<(TRα/TRβ)<5) |
| Cc1cc(NC(=O)CC(=O)O)c(F)c(C)c1Cc1ccc(O)c(C2CCCCCC2)n1 [Example 131, 3-({4-[(6-cycloheptyl-5-hydroxypyridin-2-yl)methyl]-2-fluoro-3,5-dimethylphenyl}amino)-3-oxopropanoic acid] | 4 | A (5<(TRα/TRβ)) |
| Cc1cc(OCC(=O)O)c2c(c1Cc1ccc(O)c(C3CCCCC3)n1)CCC2 [Example 152, ({7-[(6-cyclohexyl-5-hydroxypyridin-2-yl)methyl]-6-methyl-2,3-dihydro-1H-inden-4-yl}oxy)acetic acid] | 5 | B (2<(TRα/TRβ)<5) |
| Cc1cc(OCC(=O)O)c(C)c(C)c1Cc1ccc(O)c(-c2cccc(F)c2)n1 [Example 171, {4-[6-(3-fluoro-phenyl)-5-hydroxy-pyridin-2-ylmethyl]-2,3,5-trimethyl-phenoxy}acetic acid] | 2 | A (5<(TRα/TRβ)) |
| Cc1cc(OCc2noc(=O)[nH]2)c(F)c(C)c1Cc1ccc(O)c(-c2ccc(F)c(F)c2F)n1 [Example 191, 3-{2-fluoro-4-[5-hydroxy-6-(2,3,4-trifluoro-phenyl)-pyridin-2-ylmethyl]-3,5-dimethyl-phenoxymethyl}-1,2,4-oxadiazol-5(4H)-one] | 6 | A (5<(TRα/TRβ)) |
| Cc1cc(OCc2noc(=O)[nH]2)c(F)c(C)c1Cc1ccc(O)c(-c2cccc(N3CCCC3)c2)n1 [Example 206, 3-[(2-fluoro-4-{[5-hydroxy-6-(3-pyrrolidin-1-ylphenyl)pyridin-2-yl]methyl}-3,5-dimethylphenoxy)methyl]-1,2,4-oxadiazol-5(4H)-one] | 3 | A (5<(TRα/TRβ)) |
| Cc1cc(-n2nc(C#N)c(=O)[nH]c2=O)cc(C)c1Cc1ccc(O)c(-c2ccccc2)n1 [Example 216, 2-{4-[(5-hydroxy-6-phenylpyridin-2-yl)methyl]-3,5-dimethylphenyl}-3,5-dioxo-2,3,4,5-tetrahydro-1,2,4-triazine-6-carbonitrile] | 4 | A (5<(TRα/TRβ)) |
| CCCOc1cccc(-c2nc(Cc3c(C)cc(OCc4noc(=O)[nH]4)c(F)c3C)ccc2O)c1 [Example 236, 3-{2-fluoro-4-[5-hydroxy-6-(3-propoxy-phenyl)-pyridin-2-ylmethyl]-3,5-dimethyl-phenoxymethyl}-1,2,4-oxadiazol-5(4H)-one] | 3 | A (5<(TRα/TRβ)) |
| O=C(O)COc1cc(Br)c(Cc2ccc(O)c(-c3ccccc3)n2)c(Br)c1F [Example 256, [3,5-dibromo-2-fluoro-4-(5-hydroxy-6-phenyl-pyridin-2-ylmethyl)-phenoxy]acetic acid] | 3 | A (5<(TRα/TRβ)) |

Stronger by EC50 [1], values ahead:

| EC50 [1] [nM] | selectivity (TRα/TRβ) [2] | Structure (SMILES) |
| --- | --- | --- |
| 1 | C (2>(TRα/TRβ)) | Cc1cc(CC(F)C(=O)O)c(C)c(C)c1Cc1ccc(O)c(C2CCCCC2)n1 (stereo not shown) [Example 136, 3-{4-[(6-cyclohexyl-5-hydroxypyridin-2-yl)methyl]-2,3,5-trimethylphenyl}-2-fluoropropanoic acid] |
| 0.4 | A (5<(TRα/TRβ)) | Cc1cc(OCC(=O)O)c(C)c(C)c1Cc1ccc(O)c(-c2cccc(Cl)c2)n1 [Example 173, (4-{[6-(3-chlorophenyl)-5-hydroxypyridin-2-yl]methyl}-2,3,5-trimethylphenoxy)acetic acid] |
| 1 | B (2<(TRα/TRβ)<5) | COCC1(c2nc(Cc3c(C)cc(OCc4noc(=O)[nH]4)c(F)c3C)ccc2O)CCCCC1 [Example 268, 3-{[2-fluoro-4-({5-hydroxy-6-[1-(methoxymethyl)cyclohexyl]pyridin-2-yl}methyl)-3,5-dimethylphenoxy]methyl}-1,2,4-oxadiazol-5(4H)-one] |
| 0.7 | A (5<(TRα/TRβ)) | CCc1cc(OCC(=O)O)c(C)c(C)c1Cc1ccc(O)c(-c2cccc(F)c2)n1 [Example 269, (5-ethyl-4-{[6-(3-fluorophenyl)-5-hydroxypyridin-2-yl]methyl}-2,3-dimethylphenoxy)acetic acid] |
